tested on: Zymoseptoria tritici; experiment: Test A: wheat leaf blotch, preventive spray on wheat seedlings; format: in vivo; conditions: 50 ppm, 100 = 100% disease control, 0 = no control
Excerpt: (§1) General protocol for preparing test suspensions for Tests A-F: the test compounds were first dissolved in acetone in an amount equal to 3% of the final volume and then suspended at the desired concentration (in ppm) in acetone and purified water (50/50 mix by volume) containing 250 ppm of the surfactant PEG400 (polyhydric alcohol esters). The resulting test suspensions were then used in Tests A-F.
(§2) The test solution was sprayed to the point of run-off on wheat seedlings. The following day the seedlings were inoculated with a spore suspension of Zymoseptoria tritici (the causal agent of wheat leaf blotch) and incubated in a saturated atmosphere at 24° C. for 48 h, and then moved to a growth chamber at 20° C. for 17 days, after which time disease ratings were made.
(§3) A rating of 100 indicates 100% disease control and a rating of 0 indicates no disease control (relative to the controls). A dash (-) indicates the compound was not tested.

SMILES	Test A disease control rating
CCc1c(-c2ccc(F)cc2Cl)c(-c2cc(OC)ccc2Cl)cn(C)c1=O [Compound 47]	81%
Cn1cc(-c2ccccc2Cl)c(-c2ccc(F)cc2F)c(Cl)c1=O [Compound 48]	99%
COc1ccc(F)c(-c2cn(C)c(=O)c(Cl)c2-c2ccc(F)cc2F)c1 [Compound 49]	100%
CCOc1ccc(Cl)c(-c2cn(C)c(=O)c(Cl)c2-c2ccc(F)cc2F)c1 [Compound 52]	100%
Cc1c(-c2cn(C)c(=O)c(Cl)c2-c2ccc(F)cc2Cl)cccc1[N+](=O)[O-] [Compound 54]	100%
Cn1cc(-c2sccc2Cl)c(-c2ccc(F)cc2Cl)c(Cl)c1=O [Compound 55]	96%
COc1ccc(Cl)c(-c2cn(C)c(=O)c(Cl)c2-c2ccc(C#N)cc2Cl)c1 [Compound 56]	100%
COc1ccc(Cl)c(-c2cn(C)c(=O)c(Cl)c2-c2ccccc2C(F)(F)F)c1 [Compound 57]	98%
COc1ccc(Cl)c(-c2cn(C)c(=O)cc2-c2ccc(Br)cc2Cl)c1 [Compound 58]	98%
COc1ccc(Cl)c(-c2cn(C)c(=O)cc2-c2ccc(C#N)cc2Cl)c1 [Compound 59]	99%
Cc1cc(F)ncc1-c1cn(C)c(=O)c(Cl)c1-c1ccc(F)cc1Cl [Compound 60]	99%
COc1ccc(Cl)c(-c2cn(C)c(=O)c(Cl)c2-c2ccccc2F)c1 [Compound 61]	100%

tested on: Puccinia recondita f. sp. tritici; experiment: Test B: wheat leaf rust, preventive spray on wheat seedlings; format: in vivo; conditions: 50 ppm, 100 = 100% disease control, 0 = no control
Excerpt: as §1
as §2, with “Puccinia recondita f. sp.” for “Zymoseptoria”, “rust)” for “blotch)”, “20°” for “24°”, “24” for “48”, “7” for “17”, “time visual” for “time”
as §3

SMILES	Test B disease control rating
CCc1c(-c2ccc(F)cc2Cl)c(-c2cc(OC)ccc2Cl)cn(C)c1=O [Compound 47]	100%
Cn1cc(-c2ccccc2Cl)c(-c2ccc(F)cc2F)c(Cl)c1=O [Compound 48]	99%
COc1ccc(F)c(-c2cn(C)c(=O)c(Cl)c2-c2ccc(F)cc2F)c1 [Compound 49]	100%
CCOc1ccc(Cl)c(-c2cn(C)c(=O)c(Cl)c2-c2ccc(F)cc2F)c1 [Compound 52]	100%
Cc1c(-c2cn(C)c(=O)c(Cl)c2-c2ccc(F)cc2Cl)cccc1[N+](=O)[O-] [Compound 54]	99%
Cn1cc(-c2sccc2Cl)c(-c2ccc(F)cc2Cl)c(Cl)c1=O [Compound 55]	90%
COc1ccc(Cl)c(-c2cn(C)c(=O)c(Cl)c2-c2ccc(C#N)cc2Cl)c1 [Compound 56]	100%
COc1ccc(Cl)c(-c2cn(C)c(=O)c(Cl)c2-c2ccccc2C(F)(F)F)c1 [Compound 57]	99%
COc1ccc(Cl)c(-c2cn(C)c(=O)cc2-c2ccc(Br)cc2Cl)c1 [Compound 58]	55%
COc1ccc(Cl)c(-c2cn(C)c(=O)cc2-c2ccc(C#N)cc2Cl)c1 [Compound 59]	92%
Cc1cc(F)ncc1-c1cn(C)c(=O)c(Cl)c1-c1ccc(F)cc1Cl [Compound 60]	95%
COc1ccc(Cl)c(-c2cn(C)c(=O)c(Cl)c2-c2ccccc2F)c1 [Compound 61]	100%

tested on: Blumeria graminis f. sp. tritici; experiment: Test C: wheat powdery mildew, preventive spray on wheat seedlings; format: in vivo; conditions: 50 ppm, 100 = 100% disease control, 0 = no control
Excerpt: as §1
The test suspension was sprayed to the point of run-off on wheat seedlings. The following day the seedlings were inoculated with a spore dust of Blumeria graminis f. sp. tritici, (also known as Eysiphe graminis f. sp. tritici, the causal agent of wheat powdery mildew) and incubated in a growth chamber at 20° C. for 8 days, after which time visual disease ratings were made.
as §3

SMILES	Test C disease control rating
CCc1c(-c2ccc(F)cc2Cl)c(-c2cc(OC)ccc2Cl)cn(C)c1=O [Compound 47]	99%
Cn1cc(-c2ccccc2Cl)c(-c2ccc(F)cc2F)c(Cl)c1=O [Compound 48]	72%
COc1ccc(F)c(-c2cn(C)c(=O)c(Cl)c2-c2ccc(F)cc2F)c1 [Compound 49]	0%
CCOc1ccc(Cl)c(-c2cn(C)c(=O)c(Cl)c2-c2ccc(F)cc2F)c1 [Compound 52]	91%
Cc1c(-c2cn(C)c(=O)c(Cl)c2-c2ccc(F)cc2Cl)cccc1[N+](=O)[O-] [Compound 54]	0%
Cn1cc(-c2sccc2Cl)c(-c2ccc(F)cc2Cl)c(Cl)c1=O [Compound 55]	0%
COc1ccc(Cl)c(-c2cn(C)c(=O)c(Cl)c2-c2ccc(C#N)cc2Cl)c1 [Compound 56]	98%
COc1ccc(Cl)c(-c2cn(C)c(=O)c(Cl)c2-c2ccccc2C(F)(F)F)c1 [Compound 57]	64%
COc1ccc(Cl)c(-c2cn(C)c(=O)cc2-c2ccc(Br)cc2Cl)c1 [Compound 58]	0%
COc1ccc(Cl)c(-c2cn(C)c(=O)cc2-c2ccc(C#N)cc2Cl)c1 [Compound 59]	0%
Cc1cc(F)ncc1-c1cn(C)c(=O)c(Cl)c1-c1ccc(F)cc1Cl [Compound 60]	73%
COc1ccc(Cl)c(-c2cn(C)c(=O)c(Cl)c2-c2ccccc2F)c1 [Compound 61]	89%

tested on: Phakopsora pachyrhizi; experiment: Test D: Asian soybean rust, preventive spray on soybean seedlings; format: in vivo; conditions: 50 ppm, 100 = 100% disease control, 0 = no control
Excerpt: as §1
The test solution was sprayed to the point of run-off on soybean seedlings. The following day the seedlings were inoculated with a spore suspension of Phakopsora pachyrhizi (the causal agent of Asian soybean rust) and incubated in a saturated atmosphere at 22° C. for 24 h and then moved to a growth chamber at 22° C. for 8 days, after which time visual disease ratings were made.
as §3

SMILES	Test D disease control rating
CCc1c(-c2ccc(F)cc2Cl)c(-c2cc(OC)ccc2Cl)cn(C)c1=O [Compound 47]	51%
Cn1cc(-c2ccccc2Cl)c(-c2ccc(F)cc2F)c(Cl)c1=O [Compound 48]	77%
COc1ccc(F)c(-c2cn(C)c(=O)c(Cl)c2-c2ccc(F)cc2F)c1 [Compound 49]	73%
CCOc1ccc(Cl)c(-c2cn(C)c(=O)c(Cl)c2-c2ccc(F)cc2F)c1 [Compound 52]	81%
Cc1c(-c2cn(C)c(=O)c(Cl)c2-c2ccc(F)cc2Cl)cccc1[N+](=O)[O-] [Compound 54]	75%
Cn1cc(-c2sccc2Cl)c(-c2ccc(F)cc2Cl)c(Cl)c1=O [Compound 55]	0%
COc1ccc(Cl)c(-c2cn(C)c(=O)c(Cl)c2-c2ccc(C#N)cc2Cl)c1 [Compound 56]	97%
COc1ccc(Cl)c(-c2cn(C)c(=O)c(Cl)c2-c2ccccc2C(F)(F)F)c1 [Compound 57]	44%
COc1ccc(Cl)c(-c2cn(C)c(=O)cc2-c2ccc(Br)cc2Cl)c1 [Compound 58]	0%
COc1ccc(Cl)c(-c2cn(C)c(=O)cc2-c2ccc(C#N)cc2Cl)c1 [Compound 59]	0%
Cc1cc(F)ncc1-c1cn(C)c(=O)c(Cl)c1-c1ccc(F)cc1Cl [Compound 60]	65%
COc1ccc(Cl)c(-c2cn(C)c(=O)c(Cl)c2-c2ccccc2F)c1 [Compound 61]	94%

tested on: Botrytis cinerea; experiment: Test E: tomato Botrytis, preventive spray on tomato seedlings; format: in vivo; conditions: 50 ppm, 100 = 100% disease control, 0 = no control
Excerpt: as §1
(§4) The test suspension was sprayed to the point of run-off on tomato seedlings. The following day the seedlings were inoculated with a spore suspension of Botrytis cinerea (the causal agent of tomato Botrytis) and incubated in a saturated atmosphere at 20° C. for 48 h, and then moved to a growth chamber at 24° C. for 3 days, after which time visual disease ratings were made.
as §3

SMILES	Test E disease control rating
CCc1c(-c2ccc(F)cc2Cl)c(-c2cc(OC)ccc2Cl)cn(C)c1=O [Compound 47]	91%
Cn1cc(-c2ccccc2Cl)c(-c2ccc(F)cc2F)c(Cl)c1=O [Compound 48]	96%
COc1ccc(F)c(-c2cn(C)c(=O)c(Cl)c2-c2ccc(F)cc2F)c1 [Compound 49]	96%
CCOc1ccc(Cl)c(-c2cn(C)c(=O)c(Cl)c2-c2ccc(F)cc2F)c1 [Compound 52]	99%
Cc1c(-c2cn(C)c(=O)c(Cl)c2-c2ccc(F)cc2Cl)cccc1[N+](=O)[O-] [Compound 54]	92%
Cn1cc(-c2sccc2Cl)c(-c2ccc(F)cc2Cl)c(Cl)c1=O [Compound 55]	97%
COc1ccc(Cl)c(-c2cn(C)c(=O)c(Cl)c2-c2ccc(C#N)cc2Cl)c1 [Compound 56]	96%
COc1ccc(Cl)c(-c2cn(C)c(=O)c(Cl)c2-c2ccccc2C(F)(F)F)c1 [Compound 57]	90%
COc1ccc(Cl)c(-c2cn(C)c(=O)cc2-c2ccc(Br)cc2Cl)c1 [Compound 58]	90%
COc1ccc(Cl)c(-c2cn(C)c(=O)cc2-c2ccc(C#N)cc2Cl)c1 [Compound 59]	95%
Cc1cc(F)ncc1-c1cn(C)c(=O)c(Cl)c1-c1ccc(F)cc1Cl [Compound 60]	97%
COc1ccc(Cl)c(-c2cn(C)c(=O)c(Cl)c2-c2ccccc2F)c1 [Compound 61]	98%

tested on: Alternaria solani; experiment: Test F: tomato early blight, preventive spray on tomato seedlings; format: in vivo; conditions: 50 ppm, 100 = 100% disease control, 0 = no control
Excerpt: as §1
as §4, with “Alternaria solani” for “Botrytis cinerea”, “early blight)” for “Botrytis)”, “27°” for “20°”, “20°” for “24°”
as §3

SMILES	Test F disease control rating
CCc1c(-c2ccc(F)cc2Cl)c(-c2cc(OC)ccc2Cl)cn(C)c1=O [Compound 47]	99%
Cn1cc(-c2ccccc2Cl)c(-c2ccc(F)cc2F)c(Cl)c1=O [Compound 48]	96%
COc1ccc(F)c(-c2cn(C)c(=O)c(Cl)c2-c2ccc(F)cc2F)c1 [Compound 49]	100%
CCOc1ccc(Cl)c(-c2cn(C)c(=O)c(Cl)c2-c2ccc(F)cc2F)c1 [Compound 52]	99%
Cc1c(-c2cn(C)c(=O)c(Cl)c2-c2ccc(F)cc2Cl)cccc1[N+](=O)[O-] [Compound 54]	26%
Cn1cc(-c2sccc2Cl)c(-c2ccc(F)cc2Cl)c(Cl)c1=O [Compound 55]	0%
COc1ccc(Cl)c(-c2cn(C)c(=O)c(Cl)c2-c2ccc(C#N)cc2Cl)c1 [Compound 56]	99%
COc1ccc(Cl)c(-c2cn(C)c(=O)c(Cl)c2-c2ccccc2C(F)(F)F)c1 [Compound 57]	0%
COc1ccc(Cl)c(-c2cn(C)c(=O)cc2-c2ccc(Br)cc2Cl)c1 [Compound 58]	0%
COc1ccc(Cl)c(-c2cn(C)c(=O)cc2-c2ccc(C#N)cc2Cl)c1 [Compound 59]	0%
Cc1cc(F)ncc1-c1cn(C)c(=O)c(Cl)c1-c1ccc(F)cc1Cl [Compound 60]	40%
COc1ccc(Cl)c(-c2cn(C)c(=O)c(Cl)c2-c2ccccc2F)c1 [Compound 61]	100%

— patent publication US20240215577A1, “FUNGICIDAL PYRIDONES” (FMC Corporation, priority 2021, published 2024)
